Assay results from PubChem BioAssay (NCI).
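All cell lines were grown in 96-well plates and treated with compound for 48 hours. GI50: concentration for 50% inhibition of growth. TGI is the concentration that stops growth completely.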

Tests used:
Test in all cases: NCI-60 cell line screen, 48 h
HOP-62 NSCLC = tested on: HOP-62 NSCLC
HT29 colon = tested on: HT29 colon
KM12 colon = tested on: KM12 colon
CAKI-1 renal = tested on: CAKI-1 renal
NCI-H226 lung = tested on: NCI-H226 lung
A498 renal = tested on: A498 renal
SNB-19 CNS = tested on: SNB-19 CNS
OVCAR-3 ovarian = tested on: OVCAR-3 ovarian
A549 NSCLC = tested on: A549 NSCLC
SF-539 CNS = tested on: SF-539 CNS

| Structure (SMILES) | GI50 (HOP-62 NSCLC) [µM] | TGI (HOP-62 NSCLC) [µM] | GI50 (HT29 colon) [µM] | TGI (HT29 colon) [µM] | GI50 (KM12 colon) [µM] | TGI (KM12 colon) [µM] | GI50 (CAKI-1 renal) [µM] | TGI (CAKI-1 renal) [µM] | GI50 (NCI-H226 lung) [µM] | TGI (NCI-H226 lung) [µM] | GI50 (A498 renal) [µM] | TGI (A498 renal) [µM] | GI50 (SNB-19 CNS) [µM] | TGI (SNB-19 CNS) [µM] | GI50 (OVCAR-3 ovarian) [µM] | TGI (OVCAR-3 ovarian) [µM] | GI50 (A549 NSCLC) [µM] | TGI (A549 NSCLC) [µM] | GI50 (SF-539 CNS) [µM] | TGI (SF-539 CNS) [µM] |
| --- | --- | --- | --- | --- | --- | --- | --- | --- | --- | --- | --- | --- | --- | --- | --- | --- | --- | --- | --- | --- |
| CC(C)[C@@]12C[C@@H](OC(=O)COC(=O)c3ccccc3)[C@@](C)(O1)[C@@H]1CC[C@@H](C)[C@H]1[C@@H]2OC(=O)/C=C/c1ccccc1 | > 100 | > 100 | > 100 | > 100 | > 100 | > 100 | 0.0812 | 2.87 | 18.7 | > 100 | 0.153 | 0.529 | > 100 | > 100 | > 100 | > 100 | > 100 | > 100 | > 100 | > 100 |
| COc1ccc(-c2nc3sccn3c2-c2ccnc(NCCNS(=O)(=O)c3ccc(C(F)(F)F)cc3)n2)cc1 | 13.7 | > 100 | 2.45 | > 100 | 1.36 | 36.2 | 2.64 | > 100 | 2.42 | 10.3 | 0.31 | 6.86 | 3.77 | > 100 | 2.03 | > 100 | 3.98 | > 100 | 2.55 | 7.77 |
| COc1ccc(N=Nc2ccc(O)c(=O)cc2)cc1 | 4.19 | 41.8 | 4.83 | 49.7 | 3.66 | > 100 | 3.77 | > 100 | 3.73 | > 100 | 24.1 | > 100 | 2.92 | 51.6 | 3.64 | > 100 | 3.02 | > 100 | 3.16 | 11.5 |
| O=C(O)CN1C(=O)OC(c2ccccc2)C1=O (stereo not drawn) | – | > 100 | – | > 100 | – | > 100 | – | > 100 | – | > 100 | – | > 100 | – | > 100 | – | > 100 | – | > 100 | – | > 100 |
| CCCCCCCCCN=C(N)c1ccc(N2CCN(c3ccc(C(N)=NCCCCCCCCC)cc3)CC2)cc1 | 2.72 | > 50 | 1.3 | 7.4 | 1.7 | 5.67 | 1.86 | 8.42 | 3.77 | > 50 | – | – | 2.29 | 15.8 | 1.1 | 3.83 | 1.57 | 10.5 | 2 | 4.48 |
| O=C(CCN1CCCCC1)c1csc2ccccc12 | – | > 100 | – | > 100 | – | > 100 | – | > 100 | – | > 100 | – | > 100 | – | > 100 | – | > 100 | – | > 100 | – | > 100 |
| COc1cc(-c2oc3c(OC)c(O)c(OC)c(O)c3c(=O)c2OC)cc(OC)c1OC | – | > 100 | – | > 100 | – | > 100 | – | > 100 | – | > 100 | – | > 100 | – | > 100 | – | 95.9 | – | > 100 | – | > 100 |
| COC(=O)C1c2cc3c(c(O)c2CCC1(C)O)C(=O)c1c(O)cc2c(c1C3=O)OC1OC2(C)C(O)C(N(C)C)C1O (stereo not drawn) | – | 1.58 | – | 1.29 | – | 1.52 | – | – | – | 0.45 | – | – | – | 1.39 | – | 1.62 | – | 0.916 | – | 3.88 |
| CC(=O)OC1C(O)C(C)OC(OC2C(OC(=O)C3CCC4C(C3)OC3(CC(OC(=O)/C=C/c5ccccc5)C(C)CO3)C43CO3)OC(C)C(O)C2OC(C)=O)C1O (stereo not drawn) | – | 0.0519 | – | 0.0473 | – | 0.0562 | – | 1.21 | – | 0.0522 | – | 0.188 | – | 0.0316 | – | 0.0451 | – | 0.333 | – | 0.0285 |
| COc1cc2c(Nc3ccc(-c4ccc(N)cc4)cc3)ncnc2c(OC)c1OC | 24.8 | > 100 | 8.02 | > 81.7 | 0.615 | 41.6 | 0.655 | > 56.5 | 21 | > 100 | 15.1 | 56 | 7.76 | > 100 | 6.43 | > 59.3 | 2.68 | > 100 | 2.42 | > 28.7 |
| CCCCCc1cc(/C=C2/N=C(c3ccc[nH]3)C=C2OC)[nH]c1C | – | 0.362 | – | 0.143 | – | 0.364 | – | 0.0168 | – | 1.79 | – | 0.959 | – | 1.5 | – | 0.469 | – | 1.19 | – | 0.177 |
| O=C1CCc2cc(Br)ccc2O1 | – | > 100 | – | > 100 | – | – | – | > 100 | – | > 100 | – | > 100 | – | > 100 | – | > 100 | – | > 100 | – | > 100 |
| c1cc[n+](Cc2c3ccccc3cc3c2ccc2ccccc23)cc1 | 2.41 | 11.7 | 2.77 | 11.2 | 3.09 | 11.8 | – | – | 2.92 | 24.8 | 14.4 | 40.9 | 1.18 | 7.85 | 2.6 | 11.4 | 7.31 | 27.7 | 2.55 | 10.5 |
| CC1(C)CC[C@]23CC[C@]4(C)[C@H](CC[C@@H]5[C@@]6(C)CCCNC(C)(C)[C@@H]6CC[C@]54C)[C@H]2[C@H]1OC3 | 1.91 | 3.75 | 1.78 | 3.63 | – | – | 1.62 | 2.97 | 1.7 | 3.47 | 1.68 | 3.67 | 1.85 | 3.35 | 1.62 | 3.1 | 1.81 | 3.43 | 1.64 | 3.07 |
| CCOC(=O)CCc1c(C)c2c(OC)cc(OC)cc2oc1=O | – | > 100 | – | > 100 | – | > 100 | – | > 100 | – | > 100 | – | – | – | > 100 | – | > 100 | – | > 100 | – | > 100 |
| CCN(N=O)C1C2(CCCC2)NC(=O)C12CCCC2 (stereo not drawn) | – | > 100 | – | > 100 | – | > 100 | – | – | – | > 100 | – | > 100 | – | > 100 | – | > 100 | – | > 100 | – | > 100 |
| O=C(O)C1=Cc2cccc3cccc(c23)C1=O | – | > 100 | – | > 100 | – | > 100 | – | > 100 | – | > 100 | – | 73.5 | – | > 100 | – | > 100 | – | > 100 | – | – |
